Measurements: publication PMC6644236, “Cytotoxicity of Crude Extract and Isolated Constituents of the Dichrostachys cinerea Bark towards Multifactorial Drug-Resistant Cancer Cells” (Evidence-based Complementary and Alternative Medicine : eCAM, 2019)
Where two headings read alike, the source gives them in different places.

Tests used:
[1] = test system: MDA-MB-231-BCRP clone 23 cells; test: Resazurin reduction cytotoxicity assay; settings: for Degree of resistance: IC50 in MDA-MB-231-BCRP divided by IC50 in MDA-MB-231-pcDNA; for IC50: MDA-MB-231/BCRP, 72 h
Excerpt: (§2) Drug-sensitive and drug-resistant cancer cell lines of previously reported origin were used in this study. These included drug-sensitive CCRF-CEM leukemia cells and its multidrug-resistant P-glycoprotein-overexpressing subline CEM/ADR5000 cells [14–16], MDA-MB-231-pcDNA breast cancer cells and their resistant subline MDA-MB-231-BCRP clone 23 cells [17], HCT116 p53^+/+colon cancer cells and their knockout clone HCT116 p53^−/− cells, and U87.MG glioblastoma cells and their resistant subline U87.MGΔEGFR cells [18, 19]. Normal AML12 hepatocytes were used and compared with HepG2 hepatocarcinoma cells [18, 19].
(§3) The Infinite M2000 Pro™ plate reader (Tecan, Crailsheim, Germany) with excitation wavelength of 544 nm and an emission wavelength of 590 nm was used to read the fluorescence after 72 h incubation. IC50 values earlier defined [13] were calculated from a calibration curve by linear regression using Microsoft Excel [24]. The degree of resistance (D.R.) was determined as the IC50 value of the resistant cell line versus that of its sensitive congeners; meanwhile, the selectivity index (S.I.) was the IC50 value in normal AML12 hepatocytes versus that in HepG2 hepatocarcinoma.

caspase 8 = test: Caspase-Glo 8 assay; assay type: cell-based; settings: CCRF-CEM, 6 h, optimal effects at 8.8 μM
Experimental: (§1) After 6 h treatment of CCRF-CEM cells with DCB and triterpenoid 1 for 6 h, caspases activities were evaluated with Caspase-Glo 3/7, 8, and 9 assay kits (Promega, Mannheim, Germany) similarly as previously reported.

Normal AML12 hepatocytes = test: Resazurin reduction cytotoxicity assay; assay type: cell-based; settings: for Selectivity index: IC50 in normal AML12 hepatocytes divided by IC50 in HepG2; for IC50: Mus musculus, normal AML12 hepatocytes, 72 h incubation
Excerpt: as §2, §3

CCRF-CEM cells [2] = test: Cell cycle analysis by flow cytometry (PI); assay type: cell-based; settings: 24 h
Experimental: Aliquots of 1×10^6 CCRF-CEM cells were treated with the studied samples (DCB and compound 1), the reference drug (doxorubicin), or the solvent control (DMSO) at various concentrations. […] The BD Accuri C6 Flow Cytometer (BD Biosciences, Heidelberg, Germany) was used to measure the propidium iodide (PI) fluorescence of individual nuclei. Assays were repeated at least three times and in triplicate.

HCT116 p53-/- cells = test: Resazurin reduction cytotoxicity assay; assay type: cell-based; settings: for IC50: Homo sapiens, HCT-116, HCT116(p53-/-), 72 h incubation; for Degree of resistance: IC50 in HCT116 (p53-/-) divided by IC50 in HCT116 (p53+/+)
Excerpt: as §2, §3

[3] = test system: 9 tested cancer cell lines; test: Resazurin reduction cytotoxicity assay, whole panel; assay type: cell-based; settings: for IC50: all tested cancer cell lines, 72 h incubation, read-out: IC50 values over the tested cancer cell lines
Excerpt: These included drug-sensitive CCRF-CEM leukemia cells and its multidrug-resistant P-glycoprotein-overexpressing subline CEM/ADR5000 cells [14–16], MDA-MB-231-pcDNA breast cancer cells and their resistant subline MDA-MB-231-BCRP clone 23 cells [17], HCT116 p53^+/+colon cancer cells and their knockout clone HCT116 p53^−/− cells, and U87.MG glioblastoma cells and their resistant subline U87.MGΔEGFR cells [18, 19]. Normal AML12 hepatocytes were used and compared with HepG2 hepatocarcinoma cells [18, 19].
as §3

CCRF-CEM cells [4] = test: Mitochondrial membrane potential (MMP), JC-1 staining; assay type: cell-based; settings: 24 h
Experimental: The mitochondrial membrane potential (MMP) of CCRF-CEM cells was analyzed after 24 h treatment with DCB, compound 1, or valinomycin (mitochondrial gradient dissipation substance or positive control). The 5,5′,6,6′-tetrachloro-1,1′,3,3′-tetraethylbenzimidazolyl carbocyanine iodide (JC-1; Biomol, Hamburg, Germany) staining was used to measure the MMP similarly as previously reported.

[5] = test system: normal PBL peripheral blood lymphoblast; parameters: method as in PMID 11734332; settings: ref [36]; cited from earlier work
caspase 9 = test: Caspase-Glo 9 assay; assay type: cell-based; settings: CCRF-CEM, 6 h, optimal effects at 8.8 μM
Experimental: as §1

caspases 3/7 = test: Caspase-Glo 3/7 assay; assay type: cell-based; settings: CCRF-CEM, 6 h, optimal effects at 8.8 μM
Experimental: as §1

CCRF-CEM cells [6] = test system: CCRF-CEM cells; parameters: method as in PMID 29867487, PMID 11734332; settings: highest of the reported range, ref [34], [36]; cited from earlier work
CCRF-CEM cells [7] = test: Annexin V/PI staining, apoptosis by flow cytometry; settings: 24 h, 2 × IC50
Experimental: The experimental conditions were similar to those earlier reported (24 h incubation; humidified 5% CO2 atmosphere; 37°C) [13]. The BD Accuri C6 Flow Cytometer was then used to analyze apoptosis using fluorescein isothiocyanate (FITC)-conjugated annexin V/PI assay kit (eBioscience™ Annexin V; Invitrogen, San Diego, USA) similarly as reported earlier [13, 22, 23]; early apoptosis for cells stained with only annexin V; late apoptosis or in a necrotic stage for cells stained with both annexin V and propidium iodide [13, 25, 26].

CCRF-CEM leukemia cells = test: Resazurin reduction cytotoxicity assay; assay type: cell-based; settings: 72 h incubation
Experimental: as §3

[8] = test system: MDA-MB-231-pcDNA breast cancer cells; test: Resazurin reduction cytotoxicity assay; assay type: cell-based; settings: 72 h incubation
HEK293 cells = test system: HEK293 cells; parameters: method as in PMID 29867487, PMID 11734332; settings: lowest of the reported range, ref [34], [36]; cited from earlier work
[9] = test system: HCT116 p53+/+ colon cancer cells; test: Resazurin reduction cytotoxicity assay; assay type: cell-based
[10] = test system: CEM/ADR5000 leukemia cells; parameters: method as in PMID 29867487; settings: CEM/ADR5000 compared to CCRF-CEM; ref [34]; cited from earlier work
U87.MGΔEGFR cells = test: Resazurin reduction cytotoxicity assay; assay type: cell-based; settings: for Degree of resistance: IC50 in U87MG.ΔEGFR divided by IC50 in U87MG; for IC50: U87MG.ΔEGFR, 72 h incubation
Excerpt: as §2, §3

[11] = test system: CEM/ADR5000 cells (multidrug-resistant P-glycoprotein-overexpressing subline); test: Resazurin reduction cytotoxicity assay; assay type: cell-based; settings: for IC50: CEM/ADR5000, 72 h incubation; for Degree of resistance: IC50 in CEM/ADR5000 divided by IC50 in CCRF-CEM
Excerpt: as §2, §3

[12] = test system: HepG2 hepatocarcinoma cells; test: Resazurin reduction cytotoxicity assay; assay type: cell-based; settings: Homo sapiens; HepG2, 72 h incubation
Experimental: as §3

CCRF-CEM cells [13] = test: ROS production, H2DCFH-DA; assay type: cell-based; settings: 24 h, 2 × IC50 (11.38 μg/mL crude extract; 17.60 μM compound 1)
Experimental: The measurement of ROS production using 2′,7′-dichlorodihydrofluorescein diacetate (H2DCFH-DA) (Sigma-Aldrich) was done in CCRF-CEM cells were treated with DCB, compound 1, a solvent control (DMSO), or a positive control, hydrogen peroxide (H2O2) for 24 h, in similar experimental conditions as documented earlier.

[14] = test system: U87.MG glioblastoma cells; test: Resazurin reduction cytotoxicity assay; assay type: cell-based; settings: Homo sapiens, U-87 MG; U87MG, 72 h incubation
[15] = Homo sapiens, HCT-116, 72 h, 72 h incubation

## C=C(C)[C@@H]1CC[C@]2(C(=O)O)CC[C@]3(C)[C@H](CC[C@@H]4[C@@]5(C)CC[C@H](O)C(C)(C)[C@@H]5CC[C@]43C)[C@@H]12 [Compound 1, betulinic acid]
[1]
  Degree of resistance: 0.64
  IC50: 24.9 ± 1.2 µM
Caspase 8
  Increase in the activity of caspase 8: 2.91 fold
Normal AML12 hepatocytes
  Selectivity index: > 2.13
  IC50: > 93.9 µM
CCRF-CEM cells [2]; 1/4 × IC50
  Cell percentage Sub-G0/G1: 15.30%
CCRF-CEM cells [2]; 2 × IC50
  Cell percentage Sub-G0/G1: 48.40%
HCT116 p53-/- cells
  IC50: 17.1 ± 0.7 µM
  Degree of resistance: 0.54
[3]; 72 h
  IC50: < 50 µM
[3]; all resistant cell lines compared to their sensitive counterparts
  Degree of resistance (D.R.), all resistant cell lines: below 1
CCRF-CEM cells [4]; 1/2 × IC50
  Q1 intact cells: 83.0%
  Q2 loss of MMP: 1.28%
  Q3 ruptured cell membrane: 0.291%
  Q4 ruptured cell membrane: 15.4%
CCRF-CEM cells [4]; 1/4 × IC50
  Q1 intact cells: 88.0%
  Q2 loss of MMP: 1.43%
  Q3 ruptured cell membrane: 0.057%
  Q4 ruptured cell membrane: 10.6%
CCRF-CEM cells [4]; 2 × IC50
  Q1 intact cells: 42.5%
  Q2 loss of MMP: 57.5%
  Q3 ruptured cell membrane: 0.00%
  Q4 ruptured cell membrane: 0.00%
CCRF-CEM cells [4]; IC50
  Q1 intact cells: 51.8%
  Q2 loss of MMP: 48.2%
  Q3 ruptured cell membrane: 0.00%
  Q4 ruptured cell membrane: 0.00%
[5]
  Cytotoxicity towards normal cells: low cytotoxicity
Caspase 9
  Increase in the activity of caspase 9: 2.37 fold
Caspases 3/7
  Increase in the activity of caspases 3/7: 3.19 fold
CCRF-CEM cells [6]
  IC50: 29.4 µM
CCRF-CEM cells [7]
  Q9-LR early apoptotic cells annexin (+)/PI (-): 51.0%
  Q9-UL annexin V (-)/PI (+) cells (necrosis): 5.1%
CCRF-CEM leukemia cells
  IC50: 8.8 ± 0.35 µM
CCRF-CEM leukemia cells; Homo sapiens, 72 h
  IC50: < 10 µM
[8]
  IC50: 38.8 ± 0.94 µM
HEK293 cells
  IC50: 15.1 µM
[9]; [15]
  IC50: 31.5 ± 0.49 µM
[10]
  Sensitivity of resistant cells compared to sensitive congener: hypersensitivity
U87.MGΔEGFR cells
  Degree of resistance: 0.56
  IC50: 13.9 ± 1.06 µM
[11]
  IC50: 7.65 ± 1.46 µM
  Degree of resistance: 0.87
[11]; Homo sapiens, ADR5000, 72 h
  IC50: < 10 µM
[12]
  IC50: 44.2 ± 3.15 µM
CCRF-CEM cells [13]
  ROS production, percentage: 53.30%
[14]
  IC50: 24.9 ± 0.33 µM

## CCCCCCCCCCCCCCCCCCCCCCCCCC(=O)OCC(O)CO (stereo not shown) [Compound 2, glyceryl-1-hexacosanoate]
[1]
  IC50: > 100 µM
Normal AML12 hepatocytes
  IC50: > 100 µM
HCT116 p53-/- cells
  IC50: > 100 µM
[3]; 72 h
  IC50: > 100 µM
CCRF-CEM leukemia cells; Homo sapiens
  IC50: > 100 µM
[8]
  IC50: > 100 µM
[9]; [15]
  IC50: > 100 µM
U87.MGΔEGFR cells
  IC50: > 100 µM
[11]; Homo sapiens
  IC50: > 100 µM
[12]
  IC50: > 100 µM
[14]
  IC50: > 100 µM

## O=c1cc(-c2ccc(O)cc2)oc2cc(O)ccc12 [Compound 3, 7-hydroxy-2-(4-hydroxyphenyl)-4H-chromen-4-one]
[1]
  Degree of resistance: 1.06
  IC50: 80 ± 1.61 µM
Normal AML12 hepatocytes
  IC50: > 100 µM
HCT116 p53-/- cells
  IC50: 66.3 ± 5.67 µM
  Degree of resistance: < 0.66
[3]
  IC50: > 10 µM
CCRF-CEM leukemia cells; Homo sapiens
  IC50: 31.2 ± 0.98 µM
[8]
  IC50: 75.5 ± 5.16 µM
[9]; Homo sapiens, HCT-116, 72 h incubation
  IC50: > 100 µM
U87.MGΔEGFR cells
  Degree of resistance: 0.88
  IC50: 53.8 ± 6.1 µM
[11]; Homo sapiens
  IC50: 124 ± 20.2 µM
[11]
  Degree of resistance: 3.98
[12]
  IC50: 48.6 ± 7.09 µM
[14]
  IC50: 61.3 ± 5.87 µM

## O=c1cc(-c2ccc(O)cc2)oc2ccc(O)cc12 [Compound 4, 6-hydroxy-2-(4-hydroxyphenyl)-4H-chromen-4-one]
[1]
  Degree of resistance: 0.88
  IC50: 40.5 ± 3.9 µM
Normal AML12 hepatocytes
  Selectivity index: 1.59
  IC50: 53.9 ± 11.2 µM
HCT116 p53-/- cells
  IC50: 48.6 ± 3.82 µM
  Degree of resistance: 1.00
CCRF-CEM leukemia cells; Homo sapiens
  IC50: 18.9 ± 1.54 µM
[8]
  IC50: 45.8 ± 4.76 µM
[9]; 72 h incubation
  IC50: 48.9 ± 5.35 µM
[9]; [15]
  IC50: 88.9 µM
U87.MGΔEGFR cells
  Degree of resistance: 1.02
  IC50: 44.6 ± 2.56 µM
[11]; Homo sapiens
  IC50: 38.8 ± 2.13 µM
[11]
  Degree of resistance: 2.05
[12]
  IC50: 34 ± 2.95 µM
[14]
  IC50: 43.9 ± 8.19 µM

## COc1cccc2c1C(=O)c1c(O)c3c(c(O)c1C2=O)C[C@@](O)(C(=O)CO)C[C@@H]3O[C@H]1C[C@H](N)[C@H](O)[C@H](C)O1 [Doxorubicin, doxorubicin, reference compound]
[1]
  Degree of resistance: 6.14
  IC50: 0.79 ± 0.08 µM
Normal AML12 hepatocytes
  IC50: 52.9 ± 4.09 µM
CCRF-CEM cells [2]
  Cell cycle arrest (phase): between S and G2/M
HCT116 p53-/- cells
  IC50: 1.78 ± 0.08 µM
  Degree of resistance: 3.73
CCRF-CEM leukemia cells; Homo sapiens
  IC50: 0.02 µM
[8]
  IC50: 0.13 ± 0.01 µM
U87.MGΔEGFR cells
  Degree of resistance: 3.79
  IC50: 0.98 ± 0.07 µM
[11]
  Degree of resistance: 6,683.00
[12]
  IC50: 4.56 ± 0.48 µM
[14]
  IC50: 0.26 ± 0.03 µM

## CC(C)[C@@H]1NC(=O)[C@H](C)OC(=O)[C@@H](C(C)C)NC(=O)[C@@H](C(C)C)OC(=O)[C@H](C(C)C)NC(=O)[C@H](C)OC(=O)[C@@H](C(C)C)NC(=O)[C@@H](C(C)C)OC(=O)[C@H](C(C)C)NC(=O)[C@H](C)OC(=O)[C@@H](C(C)C)NC(=O)[C@@H](C(C)C)OC1=O [Valinomycin, valinomycin, reference compound]
CCRF-CEM cells [4]; 10 μM
  Q1 intact cells: 54.1%
  Q2 loss of MMP: 45.9%
  Q3 ruptured cell membrane: 0.00%
  Q4 ruptured cell membrane: 0.00%
